Laboratory results taken from US6947790B2, “Neurocognitive function EEG measurement method and system” (priority 2000, dated 2005).
Like-named read-outs stand apart in the source and are kept apart here.

Key:
[1] = in vivo; cited from earlier work
healthy subjects [2] = test: Experiment 5: NCFC index; assay type: in vivo, human; conditions: FIG. 11
Source text: The resulting function is structured such that improvement in cognitive function in response to some intervention results in a positive deviation of the index, and impairment in cognitive function in response to some intervention results in a negative deviation of the index. […] In the first and second periods following drug ingestion the change in index values were highly significant across the group of subjects (t(9)=−4.02, p<0.004 and t(9)=−3.54, p<0.007 for t1 and t2 respectively), with some recovery in the later test periods (p's<0.05 for the rest of the test session).

healthy subjects [3] = test: Experiment 5: resting and task-related EEG and ERP; assay type: in vivo, human
Description: (§1) Experiment: The motivation behind this experiment was to evaluate whether EEG and/or behavioral indices could be used to detect cognitive side effects of a common psychiatric medication. […] It acts primarily on the GABAergic system, enhancing the inhibitory effects of this neurotransmitter. […] It adversely affects memory functions and psychomotor performance following acute administration, and its CNS effects can be detected in EEG measures. […] The experiment was performed according to a double blind, fully counterbalanced design, and all participation was fully informed and voluntary.
(§2) They then participated in three sessions: a training session and two experimental sessions. In the initial session, following informed consent procedures, subjects were familiarized with the recording methods and apparatus, and given a sham (placebo) drug dose. They then practiced the tasks until performance levels reached asymptote. […] Each session consisted of a pre-drug baseline-recording interval, followed by five post-drug recording intervals extending to 5 hours after drug administration. In the pre-drug interval and in each of the post-drug intervals EEG was recorded while subjects performed computer-presented tasks and while they rested quietly. The computerized tasks included easy and difficult versions of a sustained attention working memory task, where difficulty was manipulated by varying working memory load. Subjective scales were also used to assess drowsiness, mood, and perceived drug effects. The entire procedure, including preparation time and rest breaks lasted approximately 7 hours. Transportation home was provided for the subjects at the end of each experimental session.

healthy subjects [4] = test: Experiment 5: working memory task performance
Description: as §1, §2

healthy subjects [5] = test: Experiment 5: subjective scales after alprazolam
Description: as §1, §2

healthy adults [6] = test: Chronic AED administration study: NCFC; assay type: in vivo, human; conditions: one subject, after 30 days of chronic treatment, FIG. 14
Source text: In Progress Study of Effects of Chronic AED Administration. Although their mechanisms of action are varied and incompletely understood, AEDs as a class tend to limit sustained repetitive firing of neurons by antagonizing mechanisms of excitation or by agonizing mechanisms of inhibition. It is likely that such effects have a measurable influence on task-related EEG or ERP parameters. Such biomarkers are being identified through exploratory analyses of data from subjects taking AEDs for 4 weeks. The study, which is being performed by Drs. F. Gilliam and K. Meador, is a randomized, double blind, crossover comparison of the cognitive and behavioral effects of chronic administration of the AEDs lamotrigine and topiramate in healthy adults. Lamotrigine and topiramate are newer AEDs that have been reported to differ in their cognitive side effects.
The study is designed such that subjects are randomized in a first treatment period to receive either lamotrigine or topiramate for 12 weeks (7 weeks of dose escalation followed by 4 weeks of maintenance therapy and then 1 week of tapering off the drug). […] In each test session, subjects have their EEG recorded from 8 scalp electrodes (positioned at AFz, F3, F4, C3, C4, Pz, PO3, PO4) and their EOG recorded from electrodes placed on the supraorbital ridge and outer canthus of each eye, while they perform the WM task and while they rest quietly.

healthy normal subjects [7] = test: Experiment 6: task performance; design: species or system human; conditions: in vivo
Description: (§3) The computerized tasks included a simple reaction time task and easy and difficult versions of the sustained attention WM task, in which difficulty was manipulated by varying WM load. Subjective scales were also administered to assess drowsiness, mood, and perceived drug effects. […] Transportation home was provided at the end of the sessions.

healthy normal subjects [8] = test: Experiment 6: subjective scales after phenytoin; assay type: in vivo, human
Description: as §3, with “Experiment: The motivation behind this experiment was to evaluate how EEG and behavioral indices might be used to detect mild cognitive side effects of neurological medications, such as anti-epileptic drugs (AEDs). […] The” for “The”

healthy normal subjects [9] = test: Experiment 6: resting and task-related EEG and ERP; assay type: in vivo, human
Description: The computerized tasks included a simple reaction time task and easy and difficult versions of the sustained attention WM task, in which difficulty was manipulated by varying WM load. Subjective scales were also administered to assess drowsiness, mood, and perceived drug effects. […] Transportation home was provided at the end of the sessions. Neurophysiological Alertness: To examine whether there was any neurophysiological evidence for decreased alertness, the EEG data were processed to eliminate artifacts and to compute power spectra and ERPs in each test condition. […] These physiological changes are consistent with the subjective reports of increased drowsiness following phenytoin.

healthy normal subjects [10] = test: Experiment 6: NCFC index
Source text: Neurocognitive Function Change Index: The hybrid multivariate function for assessing changes in neurocognitive function described in Experiment 2 was also applied to this dataset, computing degree of neurocognitive change from an average of the placebo test sessions. The resulting index scores were then computed as deviations from the pre-drug test administration index score to illustrate how neurocognitive function varied over the phenytoin test session.

[11] = blood serum; cited from earlier work
[12] = Experiment 6: phenytoin blood serum levels; assay type: in vivo; conditions: human, oral, 10 mg/kg bodyweight, 5 hrs after 10 mg/kg bodyweight
healthy adults [13] = conditions: as reported for these AEDs; cited from earlier work

Cc1nnc2n1-c1ccc(Cl)cc1C(c1ccccc1)=NC2 [alprazolam]
Tpeak [1]: 1 to 2 h
plasma half-life [1]: 6 to 16 h
Pharmacodynamic profile: onset of cognitive impairment (healthy subjects [2]): rapid and relatively severe
P300 amplitude vs placebo (healthy subjects [3]; difficult task level): significantly reduced P300 amplitude
Resting beta power vs placebo (healthy subjects [3]; eyes closed state): highly significant increase in beta power
Resting theta power vs placebo (healthy subjects [3]; eyes closed state): did not affect theta power in the eyes closed state
Resting alpha power vs placebo (healthy subjects [3]; eyes open and eyes closed states): significantly reduced alpha power in both eyes open and eyes closed states
Resting beta power vs placebo (healthy subjects [3]; eyes open state): same pattern of enhancement after drug ingestion, but to a lesser extent than in the eyes closed state
Resting theta power vs placebo (healthy subjects [3]; eyes open state): significant decrease in theta power in the eyes open state
Task-related beta power vs placebo (healthy subjects [3]; in vivo): significantly larger on the alprazolam day than on the placebo day
Task-related frontal midline theta vs placebo (healthy subjects [3]; in vivo): significantly attenuated
Task-related slow and fast alpha signals vs placebo (healthy subjects [3]; in vivo): significantly attenuated
P300 amplitude vs placebo (healthy subjects [3]; low load task level and simple reaction time task): did not significantly differ between placebo and alprazolam conditions
Time of largest effect on behavioral performance (healthy subjects [4]; after drug ingestion): 0.5 to 1 h
Accuracy in working memory task vs placebo (healthy subjects [4]; easy and difficult level): less accurate
Response speed in working memory task vs placebo (healthy subjects [4]; easy and difficult level): significantly slower
Time of behavior returning towards baseline levels (healthy subjects [4]; post drug ingestion): 3.5 to 4 h
Other subjective effects vs placebo (healthy subjects [5]; 1 mg alprazolam): significantly more sleepy, more “spacey/out of it”, and more clumsy
Visual analogue scale: feel the effects of the drug, vs placebo (healthy subjects [5]; 1 mg alprazolam): heightened sense that they could “feel the effects of the drug”
Onset of felt drug effects (healthy subjects [5]; after drug ingestion): 0.5 h
Peak of felt drug effects (healthy subjects [5]; after drug ingestion): 1.5 to 2 h

Nc1nnc(-c2cccc(Cl)c2Cl)c(N)n1 [lamotrigine]
NCFC scores relative to pre-treatment baseline (healthy adults [6]): impaired neurocognitive function was observed in response to both drugs

O=C1NC(=O)C(c2ccccc2)(c2ccccc2)N1 [phenytoin]
Accuracy and reaction time during task performance vs placebo (healthy normal subjects [7]): neither accuracy nor reaction time during task performance differed on average
Visual analogue scale: feel the effects of the drug, vs placebo (healthy normal subjects [8]; 10 mg/kg phenytoin): heightened sense that they could “feel the effects of the drug”
Time of strongest sensations (healthy normal subjects [8]; after drug administration): about 4 hours
Subjective sleepiness vs placebo (healthy normal subjects [8]; in vivo): marginally more sleepy
Attention-related enhancement of N160 response to target stimuli (healthy normal subjects [9]; easy level of the task): significantly reduced in the phenytoin condition
Resting alpha band power vs placebo (healthy normal subjects [9]; eyes-closed): decrease in power in the 9-11 Hz (alpha band) frequency range
Resting theta band power vs placebo (healthy normal subjects [9]; eyes-closed, parieto-occipital electrodes): small increase in power in the 3-6 Hz (theta band) frequency range
Effects on centroparietal P300 component (healthy normal subjects [9]; in vivo): heterogeneous
Difficulty-related enhancement of frontal midline theta signal (healthy normal subjects [9]; low load vs high load WM task): reduced the difficulty-related enhancement of the frontal midline theta signal
Pharmacodynamic profile: onset of cognitive impairment (healthy normal subjects [10]; FIG. 12): slower to develop and relatively mild
Period of acute impairment in individual subjects (healthy normal subjects [10]; following drug ingestion): 2 to 4 h
Average NCFC index scores (healthy normal subjects [10]; relative to pre-treatment baseline): tended to decline relative to the pre-treatment baseline interval
therapeutic range [11]: 10 to 20 µg/mL
concentration at 5 h ([12]; read-out: blood serum level range): 3500 to 13600 ng/mL
concentration at 5 h ([12]; read-out: mean blood serum level): 9000 ng/mL

CC1(C)O[C@@H]2[C@@H](CO[C@@]3(COS(N)(=O)=O)OC(C)(C)O[C@@H]23)O1 [topiramate]
NCFC scores relative to pre-treatment baseline (healthy adults [6]): impaired neurocognitive function was observed in response to both drugs
Cognitive side effect profile (healthy adults [13]): relatively worse cognitive side effect profile than lamotrigine
